In experiment [1] the target is Na^+,K^+ -ATPase. The class given is binding. The following applies: ^3 H-ouabain displacement, purified Na^+,K^+ -ATPase receptor. From the text:
(§1) To test the affinity for the receptor site of the Na^+,K^+ -ATPase and the inhibitory activity on the enzyme, the following tests were used:
a) displacement of the specific ^3 H-ouabain binding from the Na^+,K^+ -ATPase receptor purified according to Jorghensen (Jorghensen P., BBA, 1974, 356, 36) and Erdmann ( Erdmann E. et al., Arzneim. Forsh., 1984, 34, 13 14);

In experiment [2] the target is Na^+,K^+ -ATPase. The class given is biochemical. The following applies: hydrolysis of ^32 P-ATP, purified Na^+,K^+ -ATPase. The arrangement: unit not given here.
Description: as §1
b) inhibition of the activity of the purified Na^+,K^+ -ATPase measured as % of hydrolysis of ^32 P-ATP in presence and in absence of the tested compound (Doucet A. et al., Am.

For experiment [3], the system named is spontaneous hypertensive rats of the Milan (MHS). As to the kind of experiment: systolic blood pressure and heart rate in spontaneous hypertensive rats (MHS), indirect tail-cuff. The following applies: for SBP (systolic blood pressure) / HR (heart rate): MHS rats, n = 7, 20 mg/Kg/os daily for ten days in METHOCEL 0.5% w/v; for SBP (systolic blood pressure): controls 172 +/- 2.0; for HR (heart rate): controls 328 +/- 8.6. Type of experiment: in vivo, rat. As to the method:
The ability of these compounds to lower blood pressure was tested by using animal models with genetic arterial hypertension, in particular, spontaneous hypertensive rats of the Milan (MHS) (Bianchi G., Ferrari P., Barber B., The Milan Hypertensive strain. In Handbook of hypertension. Vol.4: Experimental and genetic models of hypertension. Ed. W. de jong-Elsevier Science Publishers B.V.,1984: 328-349).
The procedure adopted to test the antihypertensive activity of the compounds on the above mentioned model was the following:
systolic blood pressure (SBP) and heart rate (HR) were measured by an indirect tail-cuff method in three-month old hypertensive rats (MHS) before beginning the treatment (basal values). The rats were then subdivided in two groups of at least 7 animals each, one receiving the compound the other, the control group, receiving only the vehicle. The compound, suspended in METHOCEL 0.5% (w/v), was administered daily by mouth, for ten days. SBP and HR were measured daily 6 and 24 hours after the treatment. At the end of the ten day treatment period, a washout period of at least two days was carried out, in order to check for how long the SBP was mantained low or the basal values were re-established.

In the case of `Cc1ncc([C@@]2(O)CC[C@]3(O)[C@@H]4CC[C@@H]5C[C@@H](O)CC[C@]5(C)[C@H]4CC[C@]23C)n1C` [Comp. I-be, 17β-(1,2-Dimethyl-5-imidazolyl)-5β-androstane-3β,14β,17α-triol], on Na^+,K^+ -ATPase [1], the “Binding ^3 H-Ouab. Displacement log IC50” value amounted to 5.4.

`C[C@]12CC[C@H](OCCN3CCCC3)C[C@H]1CC[C@@H]1[C@@H]2CC[C@]2(C)[C@@](OCCN3CCCC3)(c3ccccc3)CC[C@]12O` [Comp. I-ai, 3β,17α-Bis(2-(1-pyrrolidinyl)ethoxy)-17β-phenyl-5β-androstan-14β-ol]: on Na^+,K^+ -ATPase [1], the “Binding ^3 H-Ouab. Displacement log IC50” value is on record as 5.0.

With `C[C@]12CC[C@H](OCC(N)CN)C[C@H]1CC[C@@H]1[C@@H]2CC[C@]2(C)[C@@](O)(c3ccccc3)CC[C@]12O` (stereo partly drawn) [Comp. I-ap, 3β-((2RS)-2,3-Diaminopropoxy)-17β-phenyl-5β-androstane-14β,17α-diol], the “Inhibitory Activity log IC50” value at Na^+,K^+ -ATPase [2] came to 4.6. The “Binding ^3 H-Ouab. Displacement log IC50” value at Na^+,K^+ -ATPase [1] is given as 5.8.

For the compound `CN(C)c1ccc([C@@]2(O)CC[C@]3(O)[C@@H]4CC[C@@H]5C[C@@H](O)CC[C@]5(C)[C@H]4CC[C@]23C)cc1` [Comp. I-bf, 17β-(4-(N,N-Dimethylaminophenyl))-5β-androstane-3β,14β,17α-triol], on Na^+,K^+ -ATPase [2], the “Inhibitory Activity log IC50” value came out at 4.6. The “Binding ^3 H-Ouab. Displacement log IC50” value at Na^+,K^+ -ATPase [1] amounted to 5.7.

For the compound `C[C@]12CC[C@H](O)C[C@H]1CC[C@@H]1[C@@H]2CC[C@]2(C)[C@@](O)(c3ccsc3)CC[C@]12O` [Comp. 1-ba, 17β-(3-Thienyl)-5β-androstane-3β,14β,17α-triol], the “Inhibitory Activity log IC50” value at Na^+,K^+ -ATPase [2] is listed as 4.5. The “Binding ^3 H-Ouab. Displacement log IC50” value at Na^+,K^+ -ATPase [1] came to 5.7.

Turning to `C[C@]12CC[C@H](O)C[C@H]1CC[C@@H]1[C@@H]2CC[C@]2(C)[C@@](O)(C3=CC(=O)OC3)CC[C@]12O` [Ref. comp., 3β,14β,17α-trihydroxy-5β-card-20(22)-enolide, reference compound], the “Inhibitory Activity log IC50” value on Na^+,K^+ -ATPase [2] turned out to be 5.3. Also, the “Binding ^3 H-Ouab. Displacement log IC50” value at Na^+,K^+ -ATPase [1] is 5.9. Besides, in experiment [3], the “SBP (systolic blood pressure)” value is listed as 174 +/- 2.1 mm Hg and the “HR (heart rate)” value is recorded as 340 +/- 10.2 beats/min. Moreover, in experiment [3] (statement in words), the antihypertensive action entry is on record as “do not show antihypertensive action”.

Regarding `C[C@]12CC[C@H](O)C[C@H]1CC[C@@H]1[C@@H]2CC[C@]2(C)[C@@](O)(c3ccccc3)CC[C@]12O` [Comp. I-ac, 17β-Phenyl-5β-androstane-3β,14β,17α-triol], the “Inhibitory Activity log IC50” value at Na^+,K^+ -ATPase [2] came to 4.1. For the same compound, on Na^+,K^+ -ATPase [1], the “Binding ^3 H-Ouab. Displacement log IC50” value was 5.4. Besides, in experiment [3], the “SBP (systolic blood pressure)” value is listed as 160 +/- 4.5 mm Hg and the “HR (heart rate)” value is reported as 331 +/- 8.5 beats/min.

On to `CNCCO[C@H]1CC[C@@]2(C)[C@H](CC[C@@H]3[C@@H]2CC[C@]2(C)[C@@](O)(c4ccccc4)CC[C@]32O)C1` [Comp. I-am, 3β-(2-Methylaminoethoxy)-17β-phenyl-5β-androstane-14β,17α-diol], for which, on Na^+,K^+ -ATPase [2], the “Inhibitory Activity log IC50” value was 4.8. For the same compound, on Na^+,K^+ -ATPase [1], the “Binding ^3 H-Ouab. Displacement log IC50” value is recorded as 5.9.

For `C[C@]12CC[C@H](SCCCN)C[C@H]1CC[C@@H]1[C@@H]2CC[C@]2(C)[C@@](O)(c3ccccc3)CC[C@]12O` [Comp. I-bj], the “Inhibitory Activity log IC50” value on Na^+,K^+ -ATPase [2] is listed as 4.6. Besides, the “Binding ^3 H-Ouab. Displacement log IC50” value on Na^+,K^+ -ATPase [1] came out at 5.7.

Consider `CN(C)CCCO[C@H]1CC[C@@]2(C)[C@H](CC[C@@H]3[C@@H]2CC[C@]2(C)[C@@](O)(c4ccccc4)CC[C@]32O)C1` [Comp. I-ae, 3β-(3-Dimethylaminopropoxy)-17β-phenyl-5β-androstane-14β,17α-diol], for which the “Inhibitory Activity log IC50” value at Na^+,K^+ -ATPase [2] came out at 4.7. In addition, at Na^+,K^+ -ATPase [1], the “Binding ^3 H-Ouab. Displacement log IC50” value is on record as 5.9.

As to `C[C@]12CC[C@H](OCCO)C[C@H]1CC[C@@H]1[C@@H]2CC[C@]2(C)[C@@](O)(c3ccccc3)CC[C@]12O` [Comp. I-ad, 3β-(2-Hydroxyethoxy)-17β-phenyl-5β-androstane-14β,17α-diol], the “Inhibitory Activity log IC50” value at Na^+,K^+ -ATPase [2] is 4.0. Further, the “Binding ^3 H-Ouab. Displacement log IC50” value at Na^+,K^+ -ATPase [1] is given as 5.2.

With `C[C@]12CC[C@H](O)C[C@H]1CC[C@@H]1[C@@H]2CC[C@]2(C)[C@@](O)(c3cccnc3)CC[C@]12O` [Comp. 1-bb, 17β-(3-Pyridyl)-5β-androstane-3β,14β,17α-triol], the “Inhibitory Activity log IC50” value on Na^+,K^+ -ATPase [2] is reported as 4.3. In addition, at Na^+,K^+ -ATPase [1], the “Binding ^3 H-Ouab. Displacement log IC50” value was determined as 5.4. In addition, in experiment [3], the “SBP (systolic blood pressure)” value is recorded as 154 +/- 3.0 mm Hg and the “HR (heart rate)” value is 339 +/- 6.8 beats/min.

Consider `C[C@]12CC[C@H](OCC(O)CO)C[C@H]1CC[C@@H]1[C@@H]2CC[C@]2(C)[C@@](O)(c3ccccc3)CC[C@]12O` (stereo partly drawn) [Comp. I-ao, 3β-((2RS)-2,3-Dihydroxypropoxy)-17β-phenyl-5β-androstane-14β,17α-diol], for which the “Inhibitory Activity log IC50” value at Na^+,K^+ -ATPase [2] is 4.2. The “Binding ^3 H-Ouab. Displacement log IC50” value at Na^+,K^+ -ATPase [1] came out at 5.5.

For the compound `C[C@]12CC[C@H](O)C[C@H]1CC[C@@H]1[C@@H]2CC[C@]2(C)[C@@](O)(c3ccc(O)cc3)CC[C@]12O` [Comp. I-ay, 17β-(4-Hydroxyphenyl)-5β-androstane-3β,14β,17α-triol], on Na^+,K^+ -ATPase [2], the “Inhibitory Activity log IC50” value was 4.5. The “Binding ^3 H-Ouab. Displacement log IC50” value at Na^+,K^+ -ATPase [1] amounted to 5.6.

Turning to `C[C@]12CCC(=NNC(=N)N)C[C@H]1CC[C@@H]1[C@@H]2CC[C@]2(C)[C@@](O)(c3ccccc3)CC[C@]12O` [Comp. I-ar, 3-Guanidinoimino-17β-phenyl-5β-androstane-14β,17α-diol], at Na^+,K^+ -ATPase [2], the “Inhibitory Activity log IC50” value was determined as 4.6. Further, on Na^+,K^+ -ATPase [1], the “Binding ^3 H-Ouab. Displacement log IC50” value amounted to 5.8.

For the compound `C[C@]12CC[C@H](OCCCN)C[C@H]1CC[C@@H]1[C@@H]2CC[C@]2(C)[C@@](O)(c3ccccc3)CC[C@]12O` [Comp. I-ag, 3β-(3-Aminopropoxy)-17β-phenyl-5β-androstane-14β,17α-diol], the “Inhibitory Activity log IC50” value on Na^+,K^+ -ATPase [2] came to 4.6. Also, the “Binding ^3 H-Ouab. Displacement log IC50” value at Na^+,K^+ -ATPase [1] is 5.9. In addition, in experiment [3], the “SBP (systolic blood pressure)” value was 157 +/- 4.2 mm Hg and the “HR (heart rate)” value is reported as 330 +/- 9.8 beats/min.

As to `COc1ccc([C@@]2(O)CC[C@]3(O)[C@@H]4CC[C@@H]5C[C@@H](O)CC[C@]5(C)[C@H]4CC[C@]23C)cc1` [Comp. I-au, 17β-(4-Methoxyphenyl)-5β-androstane-3β,14β,17α-triol], the “Inhibitory Activity log IC50” value on Na^+,K^+ -ATPase [2] amounted to 4.5. The “Binding ^3 H-Ouab. Displacement log IC50” value on Na^+,K^+ -ATPase [1] was determined as 5.6. In experiment [3], the “SBP (systolic blood pressure)” value is 156 +/- 4.1 mm Hg and the “HR (heart rate)” value was 335 +/- 10.5 beats/min.

As to `CCN(CC)CCO[C@H]1CC[C@@]2(C)[C@H](CC[C@@H]3[C@@H]2CC[C@]2(C)[C@@](O)(c4ccc(OC)cc4)CC[C@]32O)C1` [Comp. I-av, 3β-(2-Diethylaminoethory)-17β-(4-methoxyphenyl)-5β-androstane-14β,17α-diol], the “Inhibitory Activity log IC50” value on Na^+,K^+ -ATPase [2] stood at 4.8. On Na^+,K^+ -ATPase [1], the “Binding ^3 H-Ouab. Displacement log IC50” value is 6.0.

Source of the values: US5567694A, “17-Aryl and 17-heterocyclyl-5β,14β-androstane derivatives active on the cardiovascular system, processes for their preparation and pharmaceutical compositions containing same” (SIGMA-TAU Industrie Farmaceutiche Riunite S.p.A., priority 1992, dated 1996).
